Experimental findings from ChEMBL document CHEMBL1128829, “Synthesis and pharmacological activities of a novel tripeptide mimetic dopamine prodrug” (Bioorg Med Chem Lett, 1995) are described below.

Usually bioavailability stands for the share of a dose that reaches the circulation, judged against a reference dose that is usually intravenous.

Molecules are shown by their SMILES. Where a SMILES comes first, the peptide text is derived from it.

The nature of data set [1]: Net water uptake by a carrier mediated transport (%cm) mechanism. The class given is ADME. The conditions noted are these: buffer.
Data set [2] concerns Rattus norvegicus. Nature of the data set: Reduction of (+)-methamphetamine-induced rotational counts on unilateral-lesion rats at a dose of 9.60 mg/Kg after 1 h. Type of data set: functional.
Data set [3] deals with Rattus norvegicus. Nature of the data set: Reduction of (+)-methamphetamine-induced rotational counts on unilateral-lesion rats at a dose of 9.60 mg/Kg after 2 h. The class given is functional.
Data set [4] is filed under the species Rattus norvegicus. Nature of the data set: Percent recovery after 90 min of incubation in a rat intestinal mucosa suspension at 37 degree Centigrade. Type of data set: functional, organism-based.
The species entered for data set [5] is Rattus norvegicus. Description: Dimensionless membrane permeability (Pm) from in situ single-pass rat jejunal perfusion at a concentration of 0.1 mM. Type of data set: functional, organism-based.
For data set [6], the species on record is Rattus norvegicus. Description: Percent recovery after 2 min of incubation in a rat intestinal mucosa suspension at 37 degree Centigrade. Type of data set: functional, organism-based.
Data set [7] is described as follows: Percent of oral bioavailability up to 1000 mg/day. The class given is ADME, organism-based. The settings on record: eutheria, in vivo.
Data set [8] has as its system Rattus norvegicus. Nature of the data set: Reduction of (+)-methamphetamine-induced rotational counts on unilateral-lesion rats at a dose of 4.20 mg/Kg after 1 h. Type of data set: functional.

On to `N[C@@H](C(=O)N1CCC[C@H]1C(=O)N[C@H](Cc1ccc(O)c(O)c1)C(=O)O)c1ccc(O)cc1`, for which the Activity in data set [1] was 1.64%. For the same compound, the Counts of rotation in data set [2] was 223 turns hr-1; in data set [3], 247 turns hr-1. Besides, in data set [4], the Recovery turned out to be 95%. The Permeability in data set [5] worked out at 1.53.
`NCC(=O)N[C@@H](Cc1ccccc1)C(=O)O` (H-Gly-Phe-OH) registered a Recovery in data set [6] of 19%.
On to `N[C@@H](Cc1ccc(O)c(O)c1)C(=O)O` [LEVODOPA], for which the Activity in data set [1] stood at 0.03%. The same compound displayed a bioavailability in data set [7] of 33%. The Counts of rotation in data set [8] was determined as 287 turns hr-1. Besides, the Permeability in data set [5] was found to be 5.38.
